“Also recorded” adds a separate entry of the source.
Columns and labels:
[1] = biological target: T1, IDE (insulin degrading enzyme) (Mus musculus, UniProt Q9JHR7); experiment: pre-treatment with IDE inhibitor followed by amylin challenge, serum Aβ; assay type: in vivo; conditions: Tg2576 mice pre-treated with 1-10 phenonthrolin, then amylin challenge
T1 construct: endogenous in cells; host or cells: Tg2576 (APP transgenic) mice, whole animal, i.p. dosing
T1 sequence (Q9JHR7 1-1019): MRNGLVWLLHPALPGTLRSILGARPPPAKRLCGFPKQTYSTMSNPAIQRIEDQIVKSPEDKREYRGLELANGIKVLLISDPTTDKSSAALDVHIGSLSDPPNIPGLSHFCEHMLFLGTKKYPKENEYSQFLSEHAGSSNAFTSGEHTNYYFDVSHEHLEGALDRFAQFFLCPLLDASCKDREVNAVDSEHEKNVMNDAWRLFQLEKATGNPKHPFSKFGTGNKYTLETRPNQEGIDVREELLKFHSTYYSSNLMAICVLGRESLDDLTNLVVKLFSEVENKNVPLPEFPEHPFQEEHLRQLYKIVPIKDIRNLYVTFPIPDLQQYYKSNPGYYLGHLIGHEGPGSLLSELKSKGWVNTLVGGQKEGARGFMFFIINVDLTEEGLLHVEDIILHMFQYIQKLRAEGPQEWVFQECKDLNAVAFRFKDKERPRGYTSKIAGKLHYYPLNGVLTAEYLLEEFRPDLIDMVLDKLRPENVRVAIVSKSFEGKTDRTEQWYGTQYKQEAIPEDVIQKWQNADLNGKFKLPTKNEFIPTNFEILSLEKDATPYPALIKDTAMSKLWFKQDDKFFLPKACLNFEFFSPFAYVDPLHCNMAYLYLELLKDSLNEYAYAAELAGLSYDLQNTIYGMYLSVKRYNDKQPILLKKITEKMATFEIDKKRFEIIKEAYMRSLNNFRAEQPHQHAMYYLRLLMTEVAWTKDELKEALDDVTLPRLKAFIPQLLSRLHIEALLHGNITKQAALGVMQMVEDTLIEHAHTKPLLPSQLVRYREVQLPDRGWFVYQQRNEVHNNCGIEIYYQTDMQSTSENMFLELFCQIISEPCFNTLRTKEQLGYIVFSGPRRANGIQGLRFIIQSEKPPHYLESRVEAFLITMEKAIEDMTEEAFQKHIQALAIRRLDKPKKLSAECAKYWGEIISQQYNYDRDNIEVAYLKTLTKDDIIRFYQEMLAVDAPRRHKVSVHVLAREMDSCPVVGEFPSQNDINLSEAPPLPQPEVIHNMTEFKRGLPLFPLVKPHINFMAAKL
Method: Tg2576 mice were used for the amylin challenge test. The mice received blood draws before any treatment. Then the mice had intraperitoneally injection (i.p) of PBS, AC253 (amylin receptor antagonist) or 1,10-phenonthrolin (IDE inhibitor) and received another blood draw 24 hrs post the treatment followed by i.p amylin (20 mg/kg). The final blood draw was conducted after 24 hrs post i.p amylin. Serum Aβ1-40 (5A) and Aβ1-42 (5B) were measured by using the ELISA assays. The levels of serum Aβ1-40 and Aβ1-42 at pre-injection of amylin were treated as 1 s, and the relative fold increases with different treatments were calculated and compared with the pre-injection level by using two-way ANOVA. P values for statistical significance are shown.
As amylin and Aβ are degraded by the same protease, IDE, we next pre-treated the Tg2576 mice with 1-10 phenonthrolin, a metalloprotease inhibitor to inhibit the activity of IDE, followed by the amylin challenge. It was next tested whether CTR/RAMP3 and IDE form a complex in this process to regulate Aβ in the brain. […] Another experiment with IDE immunoprecipitation and then RAMP3 western blot also illustrated the complex.

plasma Aβ1-40 and Aβ1-42 = experiment: pramlintide challenge in two human subjects, plasma Aβ1-40 and Aβ1-42; assay type: in vivo; conditions: pramlintide 60 mcg s.c.
Method: (§1) Subcutaneous injections of one dose of pramlintide (60 mcg) was performed in two subjects followed in the research registry of the BU ADC, one control and one probable Alzheimer's disease. Blood was drawn to collect plasma samples before the injection and at 5, 30, 60 and 180 minutes after the injection. Vital signs and blood glucose were monitored at these time points and prior to discharge of the subject from the facility. One hour after the injection, the subjects were offered a standard meal. Plasma Aβ1-40 and Aβ1-42 were measured (Table 2). […] The human results provided herein are encouraging, in part, because the dose of pramlintide (60 mcg) used was only moderate.

[2] = blood (stick) glucose monitored after pramlintide injection in two human subjects; assay type: in vivo; conditions: pramlintide 60 mcg s.c.
Method: as §1

mouse models = experiment: daily dosing in mouse models, memory functions; assay type: in vivo, mice

c1cnc2c(c1)ccc1cccnc12 [1-10 phenonthrolin, 1,10-phenonthrolin]
surges of serum Aβ at 24 hrs post the peripheral injection of amylin [1]: completely blocked

CC[C@H](C)[C@H](NC(=O)[C@@H]1CCCN1C(=O)CNC(=O)[C@H](Cc1ccccc1)NC(=O)[C@H](CC(N)=O)NC(=O)[C@H](CC(N)=O)NC(=O)[C@H](CO)NC(=O)[C@H](CO)NC(=O)[C@H](Cc1c[nH]cn1)NC(=O)[C@@H](NC(=O)[C@H](CC(C)C)NC(=O)[C@H](Cc1ccccc1)NC(=O)[C@H](CC(N)=O)NC(=O)[C@H](C)NC(=O)[C@H](CC(C)C)NC(=O)[C@H](CCCNC(=N)N)NC(=O)[C@H](CCC(N)=O)NC(=O)[C@@H](NC(=O)[C@H](C)NC(=O)[C@@H]1CSSC[C@H](NC(=O)[C@@H](N)CCCCN)C(=O)N[C@@H](CC(N)=O)C(=O)N[C@@H]([C@@H](C)O)C(=O)N[C@@H](C)C(=O)N[C@@H]([C@@H](C)O)C(=O)N1)[C@@H](C)O)C(C)C)C(=O)N[C@@H](CC(C)C)C(=O)N1CCC[C@H]1C(=O)N1CCC[C@H]1C(=O)N[C@H](C(=O)N[C@@H](CC(N)=O)C(=O)N[C@H](C(=O)NCC(=O)N[C@@H](CO)C(=O)N[C@@H](CC(N)=O)C(=O)N[C@H](C(=O)N[C@@H](Cc1ccc(O)cc1)C(N)=O)[C@@H](C)O)C(C)C)[C@@H](C)O [pramlintide]
plasma Aβ1-42 (plasma Aβ1-40 and Aβ1-42; AD subject, post 5', pre-injection 27.0): 29.0 pg/mL | plasma Aβ1-40 (plasma Aβ1-40 and Aβ1-42; AD subject, post 5', pre-injection 180.6): 160.8 pg/mL | plasma Aβ1-42 (plasma Aβ1-40 and Aβ1-42; AD subject, post 30', pre-injection 27.0): 31.8 pg/mL | plasma Aβ1-40 (plasma Aβ1-40 and Aβ1-42; AD subject, post 30', pre-injection 180.6): 161.0 pg/mL | plasma Aβ1-42 (plasma Aβ1-40 and Aβ1-42; AD subject, post 60', pre-injection 27.0): 26.6 pg/mL | plasma Aβ1-40 (plasma Aβ1-40 and Aβ1-42; AD subject, post 60', pre-injection 180.6): 129.4 pg/mL | plasma Aβ1-42 (plasma Aβ1-40 and Aβ1-42; AD subject, post 180', pre-injection 27.0): 22.0 pg/mL | plasma Aβ1-40 (plasma Aβ1-40 and Aβ1-42; AD subject, post 180', pre-injection 180.6): 104.6 pg/mL | plasma Aβ1-42 (plasma Aβ1-40 and Aβ1-42; control subject, post 5', pre-injection 29.9): 26.0 pg/mL | plasma Aβ1-40 (plasma Aβ1-40 and Aβ1-42; control subject, post 5', pre-injection 148.4): 178.4 pg/mL | plasma Aβ1-42 (plasma Aβ1-40 and Aβ1-42; control subject, post 30', pre-injection 29.9): 27.5 pg/mL | plasma Aβ1-40 (plasma Aβ1-40 and Aβ1-42; control subject, post 30', pre-injection 148.4): 150.4 pg/mL | plasma Aβ1-42 (plasma Aβ1-40 and Aβ1-42; control subject, post 60', pre-injection 29.9): 21.7 pg/mL | plasma Aβ1-40 (plasma Aβ1-40 and Aβ1-42; control subject, post 60', pre-injection 148.4): 110.5 pg/mL | plasma Aβ1-42 (plasma Aβ1-40 and Aβ1-42; control subject, post 180', pre-injection 29.9): 10.6 pg/mL | plasma Aβ1-40 (plasma Aβ1-40 and Aβ1-42; control subject, post 180', pre-injection 148.4): 100.8 pg/mL | Glucose ([2]; AD subject, post 5', pre-injection 85): 91 mg/dL | Glucose ([2]; AD subject, post 30', pre-injection 85): 88 mg/dL | Glucose ([2]; AD subject, post 60', pre-injection 85, standard meal offered one hour after injection): 135 mg/dL | Glucose ([2]; AD subject, post 180', pre-injection 85, standard meal offered one hour after injection): 115 mg/dL | Glucose ([2]; control subject, post 5', pre-injection 115): 108 mg/dL | Glucose ([2]; control subject, post 30', pre-injection 115): 115 mg/dL | Glucose ([2]; control subject, post 60', pre-injection 115, standard meal offered one hour after injection): 114 mg/dL | Glucose ([2]; control subject, post 180', pre-injection 115, standard meal offered one hour after injection): 149 mg/dL | memory functions / cognition (mouse models): increased memory functions; also recorded: led to cognitive improvements
